One may read the IC50 as the concentration needed to halve the response being measured.

Bounds are passed on as bounds.

For one test, the target named is T1, Poly [ADP-ribose] polymerase tankyrase-1 (Homo sapiens, UniProt O95271).
T1 sequence (O95271 whole entry): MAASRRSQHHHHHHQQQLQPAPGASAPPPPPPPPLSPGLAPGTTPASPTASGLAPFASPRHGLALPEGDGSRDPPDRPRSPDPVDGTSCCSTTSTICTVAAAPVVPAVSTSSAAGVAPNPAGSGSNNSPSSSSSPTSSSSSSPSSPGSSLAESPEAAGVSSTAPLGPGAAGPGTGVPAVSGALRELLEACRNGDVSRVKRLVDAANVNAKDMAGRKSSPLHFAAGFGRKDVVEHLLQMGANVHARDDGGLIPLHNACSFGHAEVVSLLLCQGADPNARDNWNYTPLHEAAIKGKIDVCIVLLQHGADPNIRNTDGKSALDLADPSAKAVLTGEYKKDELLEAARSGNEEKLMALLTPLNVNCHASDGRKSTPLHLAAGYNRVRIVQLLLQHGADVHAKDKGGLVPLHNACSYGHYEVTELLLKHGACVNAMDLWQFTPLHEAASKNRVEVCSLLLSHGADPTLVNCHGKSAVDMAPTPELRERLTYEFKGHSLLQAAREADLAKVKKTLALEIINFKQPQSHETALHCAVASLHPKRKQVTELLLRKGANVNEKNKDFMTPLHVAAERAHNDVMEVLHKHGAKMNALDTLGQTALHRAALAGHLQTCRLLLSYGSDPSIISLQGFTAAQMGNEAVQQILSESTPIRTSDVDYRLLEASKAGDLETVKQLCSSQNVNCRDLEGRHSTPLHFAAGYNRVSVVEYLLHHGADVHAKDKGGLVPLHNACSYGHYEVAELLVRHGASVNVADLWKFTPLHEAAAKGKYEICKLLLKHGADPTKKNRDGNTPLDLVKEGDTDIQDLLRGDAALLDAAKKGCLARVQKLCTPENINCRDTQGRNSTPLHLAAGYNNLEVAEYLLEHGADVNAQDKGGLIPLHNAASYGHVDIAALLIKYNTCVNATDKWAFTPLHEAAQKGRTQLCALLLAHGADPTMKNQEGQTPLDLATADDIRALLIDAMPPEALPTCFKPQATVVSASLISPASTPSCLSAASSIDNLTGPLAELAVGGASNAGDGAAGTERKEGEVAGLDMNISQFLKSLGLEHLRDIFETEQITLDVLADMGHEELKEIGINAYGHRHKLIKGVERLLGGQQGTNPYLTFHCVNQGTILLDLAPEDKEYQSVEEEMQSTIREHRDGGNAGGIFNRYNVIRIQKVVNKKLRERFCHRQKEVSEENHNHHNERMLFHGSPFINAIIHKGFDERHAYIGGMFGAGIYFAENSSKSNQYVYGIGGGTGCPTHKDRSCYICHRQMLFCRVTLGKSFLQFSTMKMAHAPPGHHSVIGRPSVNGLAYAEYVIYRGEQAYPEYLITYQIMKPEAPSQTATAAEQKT
Kind of test: Inhibition of N-terminal His-tagged human ARTD5 (1030 to 1317 residues) expressed in Escherichia coli Rosetta2 (DE3) using TCEP as substrate after 18 hrs in presence of NAD+.
Regarding `COc1ccc(C(N)=O)cc1`, the half-maximal inhibitory concentration (IC50) was over 100 µM.
In the case of `NC(=O)c1ccc(OCc2ccccc2F)cc1`, the IC50 is over 100 µM.
With `NC(=O)c1ccc(Oc2ccc(C=O)cc2)cc1`, the IC50 was over 100 µM.
With `NC(=O)c1ccc(Oc2ccc(C(=O)O)cc2)cc1`, the IC50 is over 100 µM.

For another test, the target named is T2, Protein mono-ADP-ribosyltransferase PARP15 (Homo sapiens, UniProt Q460N3).
T2 sequence (Q460N3 whole entry): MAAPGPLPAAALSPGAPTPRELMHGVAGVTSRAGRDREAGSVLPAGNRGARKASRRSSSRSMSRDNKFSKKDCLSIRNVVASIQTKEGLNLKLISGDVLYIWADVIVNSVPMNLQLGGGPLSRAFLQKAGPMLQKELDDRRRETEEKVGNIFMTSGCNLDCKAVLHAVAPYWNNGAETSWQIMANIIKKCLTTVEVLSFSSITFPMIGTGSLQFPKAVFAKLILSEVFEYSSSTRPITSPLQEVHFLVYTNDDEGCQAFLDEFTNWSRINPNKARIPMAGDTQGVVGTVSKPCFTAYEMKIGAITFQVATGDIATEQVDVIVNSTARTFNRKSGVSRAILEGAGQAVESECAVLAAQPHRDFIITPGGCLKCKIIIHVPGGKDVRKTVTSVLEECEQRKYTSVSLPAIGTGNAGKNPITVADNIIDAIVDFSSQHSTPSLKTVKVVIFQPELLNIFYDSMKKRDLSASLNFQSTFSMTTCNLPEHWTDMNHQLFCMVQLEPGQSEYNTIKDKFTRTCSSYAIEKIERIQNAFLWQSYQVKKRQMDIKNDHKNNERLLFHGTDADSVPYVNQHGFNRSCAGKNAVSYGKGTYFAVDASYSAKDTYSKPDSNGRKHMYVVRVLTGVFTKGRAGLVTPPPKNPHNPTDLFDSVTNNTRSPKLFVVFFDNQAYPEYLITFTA
Kind of test: Inhibition of N-terminal His-tagged human ARTD7 (482 to 678 residues) expressed in Escherichia coli Rosetta2 (DE3) using SRPK2 as substrate after 3 hrs in presence of NAD+.
As for `COc1ccc(C(N)=O)cc1`, the IC50 was over 10 µM.
Same read-out and setting: next, `NC(=O)c1ccc(OCc2ccccc2F)cc1`: 3.3 µM; `NC(=O)c1ccc(Oc2ccc(C=O)cc2)cc1`: over 10 µM; `NC(=O)c1ccc(Oc2ccc(C(=O)O)cc2)cc1`: 2.6 µM.

Another test deals with Protein mono-ADP-ribosyltransferase PARP14 (Homo sapiens, UniProt Q460N5). Put plainly: Inhibition of N-terminal His-tagged thioredoxin-fused human ARTD8 (1535 to 1801 residues) expressed in Escherichia coli Rosetta2 (DE3) after 21 hrs in presence of NAD+.
Sequence of Protein mono-ADP-ribosyltransferase PARP14 (Q460N5 whole entry, the tested form may be a part): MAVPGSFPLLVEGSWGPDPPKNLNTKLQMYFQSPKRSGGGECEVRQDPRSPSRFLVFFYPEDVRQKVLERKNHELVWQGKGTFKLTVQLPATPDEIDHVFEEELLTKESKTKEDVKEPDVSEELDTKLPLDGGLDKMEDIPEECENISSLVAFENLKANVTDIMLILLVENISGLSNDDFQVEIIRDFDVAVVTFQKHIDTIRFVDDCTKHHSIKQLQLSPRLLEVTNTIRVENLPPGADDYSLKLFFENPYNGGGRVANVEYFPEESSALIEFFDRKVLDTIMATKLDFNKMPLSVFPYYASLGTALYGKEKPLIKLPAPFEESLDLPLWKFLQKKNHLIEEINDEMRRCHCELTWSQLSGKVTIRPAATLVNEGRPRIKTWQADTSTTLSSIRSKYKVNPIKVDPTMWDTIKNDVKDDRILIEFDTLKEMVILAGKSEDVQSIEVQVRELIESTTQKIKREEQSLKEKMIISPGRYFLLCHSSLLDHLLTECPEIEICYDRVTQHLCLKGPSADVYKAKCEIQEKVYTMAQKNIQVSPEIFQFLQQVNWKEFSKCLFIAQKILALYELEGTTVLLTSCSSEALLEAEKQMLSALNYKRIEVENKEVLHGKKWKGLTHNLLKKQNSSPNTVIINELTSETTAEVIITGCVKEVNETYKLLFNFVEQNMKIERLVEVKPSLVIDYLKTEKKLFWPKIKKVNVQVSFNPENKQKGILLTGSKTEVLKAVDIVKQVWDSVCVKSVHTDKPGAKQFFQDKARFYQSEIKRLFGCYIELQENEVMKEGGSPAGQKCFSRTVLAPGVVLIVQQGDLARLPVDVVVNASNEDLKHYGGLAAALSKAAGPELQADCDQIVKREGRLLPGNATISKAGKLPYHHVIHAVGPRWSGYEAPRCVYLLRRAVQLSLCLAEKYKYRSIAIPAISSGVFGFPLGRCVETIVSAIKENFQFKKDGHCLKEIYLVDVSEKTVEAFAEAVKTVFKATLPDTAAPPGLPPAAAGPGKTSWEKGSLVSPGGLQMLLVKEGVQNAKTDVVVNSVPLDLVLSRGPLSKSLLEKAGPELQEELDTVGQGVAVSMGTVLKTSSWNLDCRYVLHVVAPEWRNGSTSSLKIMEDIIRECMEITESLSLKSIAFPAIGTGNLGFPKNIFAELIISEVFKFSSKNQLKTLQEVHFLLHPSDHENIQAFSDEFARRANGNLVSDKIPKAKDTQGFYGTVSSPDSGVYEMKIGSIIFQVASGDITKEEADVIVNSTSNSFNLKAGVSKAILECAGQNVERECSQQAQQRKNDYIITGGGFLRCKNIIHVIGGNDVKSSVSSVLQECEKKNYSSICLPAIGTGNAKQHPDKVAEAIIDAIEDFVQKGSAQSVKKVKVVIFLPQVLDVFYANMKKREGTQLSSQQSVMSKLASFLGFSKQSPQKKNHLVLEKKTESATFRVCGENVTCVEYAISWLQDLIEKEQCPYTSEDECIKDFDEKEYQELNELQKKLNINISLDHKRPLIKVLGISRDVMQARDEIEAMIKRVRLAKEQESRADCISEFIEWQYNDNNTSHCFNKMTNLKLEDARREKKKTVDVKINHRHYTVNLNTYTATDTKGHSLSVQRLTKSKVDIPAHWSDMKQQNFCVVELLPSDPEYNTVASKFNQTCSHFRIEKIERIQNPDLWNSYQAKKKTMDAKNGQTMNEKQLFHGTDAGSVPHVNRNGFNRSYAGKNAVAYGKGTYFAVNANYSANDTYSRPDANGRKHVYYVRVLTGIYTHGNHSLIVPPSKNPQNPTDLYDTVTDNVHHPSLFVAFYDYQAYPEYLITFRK
Take `COc1ccc(C(N)=O)cc1`: the concentration for half-maximal inhibition (IC50) is over 10 µM.
In the case of `NC(=O)c1ccc(OCc2ccccc2F)cc1`, the IC50 turned out to be 10 µM.
On the same count and under the same terms, next, `NC(=O)c1ccc(Oc2ccc(C=O)cc2)cc1`: over 10 µM; `NC(=O)c1ccc(Oc2ccc(C(=O)O)cc2)cc1`: over 10 µM.

The next test concerns the target T3, Protein mono-ADP-ribosyltransferase PARP12 (Homo sapiens, UniProt Q9H0J9).
T3 sequence (Q9H0J9 whole entry): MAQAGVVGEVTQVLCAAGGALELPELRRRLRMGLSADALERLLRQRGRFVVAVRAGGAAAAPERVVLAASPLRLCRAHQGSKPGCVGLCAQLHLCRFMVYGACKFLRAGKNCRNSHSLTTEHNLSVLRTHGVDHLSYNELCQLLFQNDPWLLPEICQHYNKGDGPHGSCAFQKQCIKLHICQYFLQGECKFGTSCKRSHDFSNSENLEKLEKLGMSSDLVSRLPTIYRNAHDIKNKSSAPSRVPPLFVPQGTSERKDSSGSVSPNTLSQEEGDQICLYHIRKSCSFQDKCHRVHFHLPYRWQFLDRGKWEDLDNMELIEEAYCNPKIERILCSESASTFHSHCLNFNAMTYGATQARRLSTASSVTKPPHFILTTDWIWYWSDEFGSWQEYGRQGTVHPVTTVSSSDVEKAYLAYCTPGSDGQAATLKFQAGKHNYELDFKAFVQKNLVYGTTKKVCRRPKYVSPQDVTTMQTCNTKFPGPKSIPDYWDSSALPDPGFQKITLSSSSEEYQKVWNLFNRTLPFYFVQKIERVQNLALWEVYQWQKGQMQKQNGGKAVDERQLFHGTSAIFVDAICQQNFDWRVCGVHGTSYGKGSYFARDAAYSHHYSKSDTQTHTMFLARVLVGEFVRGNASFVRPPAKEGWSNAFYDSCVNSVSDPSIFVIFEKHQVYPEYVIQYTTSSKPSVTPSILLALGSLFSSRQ
Kind of test: Inhibition of N-terminal His-tagged thioredoxin-fused human ARTD12 (469 to 701 residues) expressed in Escherichia coli Rosetta2 (DE3) after 20 hrs in presence of NAD+.
On to `COc1ccc(C(N)=O)cc1`, for which the IC50 was over 10 µM.
Regarding `NC(=O)c1ccc(OCc2ccccc2F)cc1`, the IC50 is over 10 µM.
As for `NC(=O)c1ccc(Oc2ccc(C=O)cc2)cc1`, the IC50 is over 10 µM.
Consider `NC(=O)c1ccc(Oc2ccc(C(=O)O)cc2)cc1`, for which the half-inhibitory concentration (IC50) is over 10 µM.

The values are drawn from ChEMBL document CHEMBL4270552, “4-(Phenoxy) and 4-(benzyloxy)benzamides as potent and selective inhibitors of mono-ADP-ribosyltransferase PARP10/ARTD10” (Eur J Med Chem, 2018).
